The numbers were not newly measured in patent EP3819377A1, “CIRCULAR RNA AND USES THEREOF FOR […]-BINDING PROTEINS” (Justus-Liebig-Universität Gießen, priority 2019, dated 2021), which cites them from elsewhere.

SMILES strings stand for the structures.

The conditions of this data set: cationic lipid with a tertiary amine group; WO 2012/031046 A2.

As to `CCCCC/C=C\C/C=C\CCCCCCCCOCC(CN(C)C)OCCCCCCCC/C=C\C/C=C\CCCCC` (stereo not shown) [DLinDMA, 1,2-dilinoleyloxy-N,N-dimethyl-3-aminopropane], the pKa is reported as 5.8.

What is called pKa is the negative logarithm of the acid dissociation constant.
